# Measurements taken from patent publication US12589099B2 (priority 2021, dated 2026).
# Experiments:
# [1] = tested on: total Tau; assay: Total Tau immunostaining 35 days post-TBI; format: in vivo, male Wistar rats; conditions: 4.5 mg/kg IN twice daily, cortex, DG, CA3, CA1 of ipsilateral hemisphere
# Source text: (§1) Young adult (2-3 months) male Wistar rats were subjected to a moderate traumatic brain injury (TBI) induced by controlled cortical impact (CCI). Animal models of TBI including the CCI model and functional tests have been described in detail in peer reviewed publications (Xiong et al., 2013, Nat Rev Neurosci.; Zhang et al., 2016, J Neurosurg.; Zhang et al., 2016, Neurochem Int.; Zhang et al., 2021, J Neurotrauma). Injury consisted of a single impact at 4.0 m/sec, 2.5 mm deformation to the left parietal cortex. In addition, a group of animals was left healthy/not injured to serve as a healthy control.
# The substance used in this study was ALPHA-1062 at 4.5 mg/kg. […]
# Histological assessment was performed including quantitative image analysis protocols; followed by statistical analysis of the data. […]
# For cell counting and quantitation NeuN+ cells were examined in the ipsilateral cortex, DG, CA1, and CA3 regions of the ipsilateral hippocampus. […] The number of BrdU+ cells (red-fluorophore) and NeuN (green-fluorophore)/BrdU-colabeled cells (yellow after merge) were counted. […] The immune-positive cells were determined and divided by the measured areas and presented as numbers per square mm. […] Tau or p-Tau immunoreactive areas including cortex, dentate gyrus, CA3 and CA1 regions of the ipsilateral hemisphere were imaged and quantified by Image J software (NIH).
# [2] = tested on: moderate traumatic brain injury (TBI) induced by controlled cortical impact (CCI); assay: Foot-fault test (right forelimb and hindlimb) after TBI; format: in vivo, male Wistar rats
# Experimental: FIG. 2: The figure illustrates functional tests that are carried out on healthy (sham surgery) no treatment, vehicle treated and ALPHA-1062 treated rats to assess sensorimotor and cognitive function after TBI. Sensimotor function tests. a) The figure depicts tests to assess the modified neurological severity score (mNSS). […] The animal is required to balance over a grid and the frequency of steps missing the grid are counted. This test assesses the functionality of the injured parietal cortex of the rat's brain. c) The adhesive removal test consists of applying adhesive tape on each forepaw of the animal and measuring the time-to-contact and the time-to-remove them. This behavior requires correct paw and mouth sensitivity (time-to-contact) and correct dexterity (time-to-remove). Cognitive function tests: a) This picture illustrates the Morris water maze that comprises that a rat is placed in a large circular pool (picture on the left) and is required to find an invisible platform that allows it to escape the water by using various visuo-spatial cues. This test is used to study spatial learning and memory and assesses hippocampal and select cortical brain region function. Usually, the path of the rat through the pool is tracked (picture on the right) and the time spend in the proximity of the platform as well as the time needed until the platform is found by the rat are measured. b) For the new/novel object recognition (NOR) test, after a habituation time in the test space (picture on far left) rats are given the opportunity to explore two identical objects (A) for a predetermined period of time (picture in the middle). After a delay, the animals are then presented with two objects to explore, one of which is the same as in the first exploration trial (A), the other a new object (B) (picture on the right). Depending on the length of the delay between the two trials or depending on the extend of cortical damage, the rats will either explore the novel object for a greater time period, indicating memory for the familiar object, or will explore the novel and familiar objects for the same amount of time, indicating a lack of recall or loss of memory for the familiar object presented during the initial trial.
# as §1
# The animals were divided into 3 groups: • 1) TBI+Vehicle (purified water, n=10) • 2) TBI+ALPHA-1062 (4.5 mg/kg) (n=10) • 3) Healthy/not injured and not treated (Sham surgery) (n=10)
# The substance used in this study was ALPHA-1062 at 4.5 mg/kg. As control treatment (vehicle) purified water was administered intranasally (IN). The ALPHA-1062 and the control treatment were initiated 2 hours after injury and continued twice daily (with a 6-hour interval) for 35 consecutive days.
# In addition, neurological functional tests were performed by conducting footfault tests and observations to determine the modified neurological severity score (mNSS) at 1, 7, 14, 21, 28, 35 days after TBI (see Table 1). The mNSS is a composite score assessing motor, sensory, balance, and reflex functions. Details of the tests and scoring system can be found in Table 2.
# Animals were monitored as they walked across a mesh for the number of times their right forelimb “missed” proper placement, indicating reduced locomotor skill. This is indicative of trauma in the left side of the brain. The results are depicted in FIG. 3. […]
smiles,measurement,setting,value
"COc1ccc2c3c1O[C@H]1C[C@@H](OC(=O)c4ccccc4)C=C[C@@]31CCN(C)C2 [ALPHA-1062, (4aS,6R,8aS)-5,6,9,10,11,12-hexahydro-3-methoxy-11-methyl-4aH-[1]benzofuro[3a,3,2-ef][2]benzazepin-6-ol benzoate]",total Tau protein,[1],does not alter total Tau protein
same,foot-fault performance compared to uninjured (sham) animals,"[2]; 4.5 mg/kg IN twice daily, by day 28 (D28)",statistically indistinguishable
same,"locomotor skill in fore- and hindlimb foot-fault test, acute","[2]; 4.5 mg/kg IN twice daily, from the first day of treatment, vs vehicle",statistically significant preservation of locomotor skill
same,recovery of locomotor skill in fore- and hindlimb foot-fault test,"[2]; 4.5 mg/kg IN twice daily, throughout the study, vs vehicle",persistently statistically significantly improved recovery
same,right forelimb foot faults during the walk over a mesh,"[2]; 4.5 mg/kg IN, 2 h post injury, twice daily, 35 days, vs vehicle after TBI (FIG. 3)",significantly fewer foot faults
same,right hindlimb foot faults during the walk over a mesh,"[2]; 4.5 mg/kg IN, 2 h post injury, twice daily, 35 days, vs vehicle after TBI (FIG. 4)",significantly fewer foot faults
same,"Footfault, performance over SHAM","[2]; rats after TBI, compared to healthy sham animals",equivalent to
same,"Footfault, performance over VEHICLE","[2]; rats after TBI, compared to vehicle treatment",superior
